# According to patent publication US9737542B2, “Pyrrolotriazine kinase inhibitors” (BRISTOL-MYERS SQUIBB COMPANY, priority 2013, dated 2017):
# Target: GST-Xa-hAAK1 (Homo sapiens (Human), UniProt Q2M2I8)
# Assay: AAK1 Kinase Assay
# Assay type: biochemical
# Details: ATP 22 μM, 3 hours at room temperature
# Protocol: The assays were performed in U-bottom 384-well plates. […] The reactions were initiated by the combination of bacterially expressed, GST-Xa-hAAK1 with substrates and test compounds. The reactions were incubated at room temperature for 3 hours and terminated by adding 60 μl of 35 mM EDTA buffer to each sample. The reactions were analyzed on the Caliper LabChip 3000 (Caliper, Hopkinton, Mass.) by electrophoretic separation of the fluorescent substrate and phosphorylated product. Inhibition data were calculated by comparison to EDTA quenched control reactions for 100% inhibition and vehicle-only reactions for 0% inhibition. […] Dose response curves were generated to determine the concentration required inhibiting 50% of kinase activity (IC50). Compounds were dissolved at 10 mM in dimethylsulfoxide (DMSO) and evaluated at eleven concentrations. IC50 values were derived by non-linear regression analysis.
# Chain of GST-Xa-hAAK1 (Q2M2I8 whole entry): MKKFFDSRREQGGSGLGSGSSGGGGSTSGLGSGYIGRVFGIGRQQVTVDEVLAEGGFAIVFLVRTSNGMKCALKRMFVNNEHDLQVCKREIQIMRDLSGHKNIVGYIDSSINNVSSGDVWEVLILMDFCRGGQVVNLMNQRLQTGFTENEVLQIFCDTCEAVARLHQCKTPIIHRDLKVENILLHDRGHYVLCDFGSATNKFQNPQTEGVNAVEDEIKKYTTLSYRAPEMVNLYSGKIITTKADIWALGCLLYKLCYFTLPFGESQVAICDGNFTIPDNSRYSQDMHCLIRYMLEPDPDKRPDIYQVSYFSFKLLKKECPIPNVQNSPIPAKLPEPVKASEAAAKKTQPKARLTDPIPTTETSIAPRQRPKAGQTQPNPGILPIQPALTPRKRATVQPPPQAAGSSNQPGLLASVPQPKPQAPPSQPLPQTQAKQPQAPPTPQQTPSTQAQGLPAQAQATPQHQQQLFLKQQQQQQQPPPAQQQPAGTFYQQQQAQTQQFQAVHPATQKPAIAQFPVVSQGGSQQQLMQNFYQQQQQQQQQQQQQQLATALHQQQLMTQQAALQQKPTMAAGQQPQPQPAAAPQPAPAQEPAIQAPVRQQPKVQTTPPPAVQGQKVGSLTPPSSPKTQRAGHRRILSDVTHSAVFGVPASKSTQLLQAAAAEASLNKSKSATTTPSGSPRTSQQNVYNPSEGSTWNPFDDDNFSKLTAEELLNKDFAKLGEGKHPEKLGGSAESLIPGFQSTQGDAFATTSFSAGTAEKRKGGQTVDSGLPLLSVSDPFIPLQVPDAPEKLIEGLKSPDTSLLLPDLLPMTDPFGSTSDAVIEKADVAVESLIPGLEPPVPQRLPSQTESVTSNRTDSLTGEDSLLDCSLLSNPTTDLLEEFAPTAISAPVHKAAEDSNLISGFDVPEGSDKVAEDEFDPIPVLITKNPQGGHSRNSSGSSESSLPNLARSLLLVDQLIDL
Structure (SMILES),IC50,IC50 (listed as IC50 ranges)
"COCCNC(=O)c1ccn2ncnc(Nc3cccc(-c4nnn(C(C)C)n4)c3)c12 [Example 108, 4-((3-(2-isopropyl-2H-tetrazol-5-yl)phenyl)amino)-N-(2-methoxyethyl)pyrrolo[2,1-f][1,2,4]triazine-5-carboxamide]",0.289 µM,–
"CC(C)n1nnc(-c2cc(Nc3ncnn4ccc(CN5CCC(N)CC5)c34)ccc2F)n1 [Example 49, 5-((4-aminopiperidin-1-yl)methyl)-N-(4-fluoro-3-(2-isopropyl-2H-tetrazol-5-yl)phenyl)pyrrolo[2,1-f][1,2,4]triazin-4-amine]",0.021 µM,–
"CC(C)c1nnc(-c2cccc(Nc3ncnn4cccc34)c2)s1 [Example 79, N-(3-(5-isopropyl-1,3,4-thiadiazol-2-yl)phenyl)pyrrolo[2,1-f][1,2,4]triazin-4-amine]",0.269 µM,–
"CC(C)c1nnc(-c2cccc(Nc3ncnn4ccc(CN5CCN(C)CC5)c34)c2)s1 [Example 55, N-(3-(5-isopropyl-1,3,4-thiadiazol-2-yl)phenyl)-5-((4-methylpiperazin-1-yl)methyl)pyrrolo[2,1-f][1,2,4]triazin-4-amine]",–,0.1 to 1 µM
"NC1CCN(Cc2ccn3ncnc(Nc4cccc(-c5noc(CCl)n5)c4)c23)CC1 [Example 11, 5-((4-aminopiperidin-1-yl)methyl)-N-(3-(5-(chloromethyl)-1,2,4-oxadiazol-3-yl)phenyl)pyrrolo[2,1-f][1,2,4]triazin-4-amine]",–,0.1 to 1 µM
"CC(C)c1nnc(-c2cccc(Nc3ncnn4ccc(CN5CC[C@@H](N)[C@H](O)C5)c34)c2)s1 [Example 48, (3R,4R)-4-amino-1-((4-((3-(5-isopropyl-1,3,4-thiadiazol-2-yl)phenyl)amino)pyrrolo[2,1-f][1,2,4]triazin-5-yl)methyl)piperidin-3-ol]",–,0.01 to 0.1 µM
"CC(C)n1nnc(-c2cccc(Nc3ncnn4ccc(C(=O)NCC#N)c34)c2)n1 [Example 107, N-(cyanomethyl)-4-((3-(2-isopropyl-2H-tetrazol-5-yl)phenyl)amino)pyrrolo[2,1-f][1,2,4]triazine-5-carboxamide]",0.469 µM,–
"Cc1ccn2ncnc(Nc3cccc(-c4noc(C(C)(C)CN)n4)c3)c12 [Example 91, N-(3-(5-(1-amino-2-methylpropan-2-yl)-1,2,4-oxadiazol-3-yl)phenyl)-5-methylpyrrolo[2,1-f][1,2,4]triazin-4-amine]",0.063 µM,–
"CC(C)n1nnc(-c2cccc(Nc3ncnn4ccc(CN5CCC(N)CC5)c34)c2)n1 [Example 8, 5-((4-aminopiperidin-1-yl)methyl)-N-(3-(2-isopropyl-2H-tetrazol-5-yl)phenyl)pyrrolo[2,1-f][1,2,4]triazin-4-amine]",0.0073 µM,–
"CC(C)c1nnc(-c2cccc(Nc3ncnn4ccc(CN5CCCC(CN)C5)c34)c2)s1 (centres unmarked) [Example 71, 5-((3-(aminomethyl)piperidin-1-yl)methyl)-N-(3-(5-isopropyl-1,3,4-thiadiazol-2-yl)phenyl)pyrrolo[2,1-f][1,2,4]triazin-4-amine]",–,1 to 5 µM
"CC(C)n1nnc(-c2cccc(Nc3ncnn4ccc(C(=O)NCC5CC5)c34)c2)n1 [Example 105, N-(cyclopropylmethyl)-4-((3-(2-isopropyl-2H-tetrazol-5-yl)phenyl)amino)pyrrolo[2,1-f][1,2,4]triazine-5-carboxamide]",0.785 µM,–
"Cc1nc(-c2cccc(Nc3ncnn4ccc(CN5CCC(N)CC5)c34)c2)no1 [Example 13, 5-((4-aminopiperidin-1-yl)methyl)-N-(3-(5-methyl-1,2,4-oxadiazol-3-yl)phenyl)pyrrolo[2,1-f][1,2,4]triazin-4-amine]",–,0.1 to 1 µM
"CC(C)n1nnc(-c2cccc(Nc3ncnn4cccc34)c2)n1 [Example 76, N-(3-(2-isopropyl-2H-tetrazol-5-yl)phenyl)pyrrolo[2,1-f][1,2,4]triazin-4-amine]",0.22 µM,–
"Cc1ccn2ncnc(Nc3cccc(-c4nnn(C(C)C)n4)c3)c12 [Example 88, N-(3-(2-isopropyl-2H-tetrazol-5-yl)phenyl)-5-methylpyrrolo[2,1-f][1,2,4]triazin-4-amine]",0.022 µM,–
"CC(C)n1nnc(-c2cccc(Nc3ncnn4ccc(CN5CCN(C)CC5)c34)c2)n1 [Example 54, N-(3-(2-isopropyl-2H-tetrazol-5-yl)phenyl)-5-((4-methylpiperazin-1-yl)methyl)pyrrolo[2,1-f][1,2,4]triazin-4-amine]",–,0.1 to 1 µM
"CC(C)CNC(=O)c1cccc(Nc2ncnn3ccc(CN4CCC(N)CC4)c23)c1 [Example 33, 3-((5-((4-aminopiperidin-1-yl)methyl)pyrrolo[2,1-f][1,2,4]triazin-4-yl)amino)-N-isobutylbenzamide]",–,0.01 to 0.1 µM
"CCOC(=O)c1ccn2ncnc(Nc3cccc(-c4noc(C(C)C)n4)c3)c12 [Example 97, ethyl 4-((3-(5-isopropyl-1,2,4-oxadiazol-3-yl)phenyl)amino)pyrrolo[2,1-f][1,2,4]triazine-5-carboxylate]",0.883 µM,–
"NC1CCN(Cc2ccn3ncnc(Nc4cccc(-c5nnc(C6CC6)s5)c4)c23)CC1 [Example 23, 5-((4-aminopiperidin-1-yl)methyl)-N-(3-(5-cyclopropyl-1,3,4-thiadiazol-2-yl)phenyl)pyrrolo[2,1-f][1,2,4]triazin-4-amine]",–,0.1 to 1 µM

Structure (SMILES),IC50,IC50 (listed as IC50 ranges)
"NC1CCN(Cc2cc(Br)n3ncnc(Nc4cccc(-c5cnco5)c4)c23)CC1 [Example 68, 5-((4-aminopiperidin-1-yl)methyl)-7-bromo-N-(3-(oxazol-5-yl)phenyl)pyrrolo[2,1-f][1,2,4]triazin-4-amine]",–,1 to 5 µM
"CC(C)c1nnc(-c2cccc(Nc3ncnn4ccc(CN5CC6CNCC6C5)c34)c2)s1 (centres unmarked) [Example 29, 5-((hexahydropyrrolo[3,4-c]pyrrol-2(1H)-yl)methyl)-N-(3-(5-isopropyl-1,3,4-thiadiazol-2-yl)phenyl)pyrrolo[2,1-f][1,2,4]triazin-4-amine]",–,0.1 to 1 µM
"CC(C)n1nnc(-c2cccc(Nc3ncnn4ccc(CNC5CC6CCC(C5)N6C)c34)c2)n1 (centres unmarked) [Example 58, N-(3-(2-isopropyl-2H-tetrazol-5-yl)phenyl)-5-((8-methyl-8-azabicyclo[3.2.1]octan-3-ylamino)methyl)pyrrolo[1,2-f][1,2,4]triazin-4-amine]",–,1 to 5 µM
"CC(C)c1nc(-c2cc(O)cc(Nc3ncnn4cccc34)c2)no1 [Example 85, 3-(5-isopropyl-1,2,4-oxadiazol-3-yl)-5-(pyrrolo[2,1-f][1,2,4]triazin-4-ylamino)phenol]",0.082 µM,–
"CC(C)n1nnc(-c2cccc(Nc3ncnn4ccc(C(=O)N5CCC(N)CC5)c34)c2)n1 [Example 109, (4-aminopiperidin-1-yl)(4-((3-(2-isopropyl-2H-tetrazol-5-yl)phenyl)amino)pyrrolo[2,1-f][1,2,4]triazin-5-yl)methanone]",4.77 µM,–
"CC(C)c1nc(-c2cc(O)cc(Nc3ncnn4ccc(CN5CCC(N)CC5)c34)c2)no1 [Example 37, 3-((5-((4-aminopiperidin-1-yl)methyl)pyrrolo[2,1-f][1,2,4]triazin-4-yl)amino)-5-(5-isopropyl-1,2,4-oxadiazol-3-yl)phenol]",–,0.001 to 0.01 µM
"CC(C)n1nnc(-c2cccc(Nc3ncnn4ccc(CN5CCOCC5)c34)c2)n1 [Example 57, N-(3-(2-isopropyl-2H-tetrazol-5-yl)phenyl)-5-(morpholinomethyl)pyrrolo[2,1-f][1,2,4]triazin-4-amine]",–,0.01 to 0.1 µM
Cc1ccn2ncnc(Nc3cccc(-c4noc(C(C)C)n4)c3)c12 [Example 86],0.123 µM,–
"CCNC(=O)c1ccn2ncnc(Nc3cccc(-c4nnn(C(C)C)n4)c3)c12 [Example 104, N-ethyl-4-((3-(2-isopropyl-2H-tetrazol-5-yl)phenyl)amino)pyrrolo[2,1-f][1,2,4]triazine-5-carboxamide]",0.195 µM,–
"CNC1CCN(Cc2ccn3ncnc(Nc4cccc(-c5nnc(C6CC6)s5)c4)c23)CC1 [Example 24, N-(3-(5-cyclopropyl-1,3,4-thiadiazol-2-yl)phenyl)-5-((4-(methylamino)piperidin-1-yl)methyl)pyrrolo[2,1-f][1,2,4]triazin-4-amine]",–,0.01 to 0.1 µM
"CC(C)(C)c1nc(-c2cccc(Nc3ncnn4ccc(CN5CCC(N)CC5)c34)c2)no1 [Example 5, 5-((4-aminopiperidin-1-yl)methyl)-N-(3-(5-(tert-butyl)-1,2,4-oxadiazol-3-yl)phenyl)pyrrolo[2,1-f][1,2,4]triazin-4-amine]",–,0.01 to 0.1 µM
"CC(C)n1nnc(-c2cccc(Nc3ncnn4ccc(CN(C)C)c34)c2)n1 [Example 102, 5-((dimethylamino)methyl)-N-(3-(2-isopropyl-2H-tetrazol-5-yl)phenyl)pyrrolo[2,1-f][1,2,4]triazin-4-amine]",0.049 µM,–
"CC(C)c1nc(-c2cc(F)cc(Nc3ncnn4ccc(CN5CCC(N)CC5)c34)c2)no1 [Example 46, 5-((4-aminopiperidin-1-yl)methyl)-N-(3-fluoro-5-(5-isopropyl-1,2,4-oxadiazol-3-yl)phenyl)pyrrolo[1,2-f][1,2,4]triazin-4-amine]",–,0.01 to 0.1 µM
"CCOC(=O)c1ccn2ncnc(Nc3cc(O)cc(-c4nnn(C(C)C)n4)c3)c12 [Example 95, ethyl 4-((3-hydroxy-5-(2-isopropyl-2H-tetrazol-5-yl)phenyl)amino)pyrrolo[2,1-f][1,2,4]triazine-5-carboxylate]",2.53 µM,–
"CC(C)C[C@@H](N)C(=O)Nc1cccc(Nc2ncnn3ccc(C(=O)N4CCC(N)CC4)c23)c1 [Example 110, (R)-2-amino-N-(3-((5-(4-aminopiperidine-1-carbonyl)pyrrolo[2,1-f][1,2,4]triazin-4-yl)amino)phenyl)-4-methylpentanamide]",7.71 µM,–
"CC(C)n1nnc(-c2cc(F)cc(Nc3ncnn4ccc(CN5CCC(N)CC5)c34)c2)n1 [Example 51, 5-((4-aminopiperidin-1-yl)methyl)-N-(3-fluoro-5-(2-isopropyl-2H-tetrazol-5-yl)phenyl)pyrrolo[2,1-f][1,2,4]triazin-4-amine]",–,0.001 to 0.01 µM
"CC(C)c1nnc(-c2cccc(Nc3ncnn4ccc(CN5CCOCC5)c34)c2)s1 [Example 56, N-(3-(5-isopropyl-1,3,4-thiadiazol-2-yl)phenyl)-5-(morpholinomethyl)pyrrolo[2,1-f][1,2,4]triazin-4-amine]",–,1 to 5 µM
